Converted amounts (≈) assume the structure as drawn.
Key:
Format in all cases: cell-based
Bacillus cereus IFO 3001 [1] = experiment: Bacteriostatic activity MIC, broth dilution; conditions: nutrient broth, 37° C., 24 hours
Procedure: (§1) Using benzalkonium chloride as a control compound, minimum inhibitory concentrations (MICs) were determined.
(§2) Each minimum inhibitory concentration (MIC) was determined as will be described hereinafter. Aliquots of a suspension of stationary-phase cells, the cell concentration of which had been adjusted to 10^6 cells/mL with nutrient broth in accordance with the general broth dilution method, were mixed with serially-diluted solutions of a compound, respectively. Subsequent to stationary culture at 37° C. for 24 hours, the MIC value was determined depending upon whether or not any growth had taken place.
(§3) As test microorganisms, ten (10) Gram-negative bacteria and six (6) Gram-positive bacteria were used.

[2] = test system: Bacillus subtilis ATCC 6633; experiment: Bacteriostatic activity MIC, broth dilution; conditions: nutrient broth, 37° C., 24 hours
Procedure: as §1, §2, §3

[3] = test system: Bacillus subtilis IFO 3134; experiment: Bacteriostatic activity MIC, broth dilution; conditions: nutrient broth, 37° C., 24 hours
Procedure: as §1, §2, §3

[4] = test system: Escherichia coli K12 OUT 8401; experiment: Bacteriostatic activity MIC, broth dilution; conditions: nutrient broth, 37° C., 24 hours
Procedure: as §1, §2, §3

[5] = test system: Escherichia coli K12 W3110; experiment: Bacteriostatic activity MIC, broth dilution; conditions: nutrient broth, 37° C., 24 hours
Procedure: as §1, §2, §3

[6] = test system: Klebsiella pneumoniae ATCC 13883; experiment: Bacteriostatic activity MIC, broth dilution; conditions: nutrient broth, 37° C., 24 hours
Procedure: as §1, §2, §3

[7] = test system: Klebsiella pneumoniae ATCC 4352; experiment: Bacteriostatic activity MIC, broth dilution; conditions: nutrient broth, 37° C., 24 hours
Procedure: as §1, §2, §3

[8] = test system: Micrococcus luteus IFO 12708; experiment: Bacteriostatic activity MIC, broth dilution; conditions: nutrient broth, 37° C., 24 hours
Procedure: as §1, §2, §3

[9] = test system: Proteus mirabilis IFO 3849; experiment: Bacteriostatic activity MIC, broth dilution; conditions: nutrient broth, 37° C., 24 hours
Procedure: as §1, §2, §3

Proteus rettgeri NIH 96 [10] = experiment: Bacteriostatic activity MIC, broth dilution; conditions: nutrient broth, 37° C., 24 hours
Procedure: as §1, §2, §3

[11] = test system: Proteus vulgaris ATCC 13315; experiment: Bacteriostatic activity MIC, broth dilution; conditions: nutrient broth, 37° C., 24 hours
Procedure: as §1, §2, §3

[12] = test system: Pseudomonas aeruginosa ATCC 10145; experiment: Bacteriostatic activity MIC, broth dilution; conditions: nutrient broth, 37° C., 24 hours
Procedure: as §1, §2, §3

[13] = test system: Pseudomonas aeruginosa ATCC 27583; experiment: Bacteriostatic activity MIC, broth dilution; conditions: nutrient broth, 37° C., 24 hours
Procedure: as §1, §2, §3

[14] = test system: Pseudomonas aeruginosa ATCC 3080; experiment: Bacteriostatic activity MIC, broth dilution; conditions: nutrient broth, 37° C., 24 hours
Procedure: as §1, §2, §3

[15] = test system: Staphylococcus aureus IFO 12732; experiment: Bacteriostatic activity MIC, broth dilution; conditions: nutrient broth, 37° C., 24 hours
Procedure: as §1, §2, §3

[16] = test system: Staphylococcus aureus JCI (MRSA); experiment: Bacteriostatic activity MIC, broth dilution; conditions: nutrient broth, 37° C., 24 hours
Procedure: as §1, §2, §3

Bacillus cereus IFO 3001 [17] = experiment: Bactericidal activity MBC, dilution method; conditions: 30° C., 30 min
Procedure: (§4) Each minimum inhibitory concentration (MIC) was determined as will be described hereinafter. Aliquots of a suspension of stationary-phase cells, the cell concentration of which had been adjusted to 10^6 cells/mL with nutrient broth in accordance with the general broth dilution method, were mixed with serially-diluted solutions of a compound, respectively. […]
(§5) As a control compound, benzalkonium bromide was used. Using five (5) Gram-negative bacteria and four (4) Gram-positive bacteria as test microorganisms, minimum bactericidal concentrations (MBCs) were determined in a similar manner as described above.

[18] = test system: Bacillus subtilis ATCC 6633; experiment: Bactericidal activity MBC, dilution method; conditions: 30° C., 30 min
Procedure: as §4, §5

[19] = test system: Bacillus subtilis IFO 3134; experiment: Bactericidal activity MBC, dilution method; conditions: 30° C., 30 min
Procedure: as §4, §5

[20] = test system: Escherichia coli K12 W3110; experiment: Bactericidal activity MBC, dilution method; conditions: 30° C., 30 min
Procedure: as §4, §5

[21] = test system: Klebsiella pneumoniae ATCC 13883; experiment: Bactericidal activity MBC, dilution method; conditions: 30° C., 30 min
Procedure: as §4, §5

Proteus rettgeri NIH 96 [22] = experiment: Bactericidal activity MBC, dilution method; conditions: 30° C., 30 min
Procedure: as §4, §5

[23] = test system: Pseudomonas aeruginosa ATCC 27583; experiment: Bactericidal activity MBC, dilution method; conditions: 30° C., 30 min
Procedure: as §4, §5

[24] = test system: Staphylococcus aureus IFO 12732; experiment: Bactericidal activity MBC, dilution method; conditions: 30° C., 30 min
Procedure: as §4, §5

[25] = test system: Escherichia coli K12 OUT 8401; experiment: Bactericidal activity MBC, dilution method; conditions: 30° C., 30 min
Procedure: as §2, §5

[26] = test system: Aspergillus niger IFO 6341; experiment: Antimold MIC against eumycetes, broth dilution; conditions: Sabouraud medium, 30° C., 7 days
Procedure: (§6) As a control compound, TBZ (2-(4′-thiozolyl)benzimidazole) was used. Each minimum inhibitory concentration (MIC) was determined as will be described hereinafter. Following the general broth dilution method, each test microorganisms which had been precultured with Sabouraud medium was diluted with humectant-added, sterilized water to prepare a spore suspension. Aliquots (1 mL) of diluted solutions of a compound were mixed with 1-mL aliquots of the spore suspension, respectively. After incubating the mixtures at 30° C. for 1 week in an incubator, turbidity was relied upon to determine whether or not any growth had taken place. The turbidity-free lowest concentration was recorded as MIC.

[27] = test system: Aspergillus niger TSY 0013; experiment: Antimold MIC against eumycetes, broth dilution; conditions: Sabouraud medium, 30° C., 7 days
Procedure: as §6

[28] = test system: Aspergillus terreus IFO 6346; experiment: Antimold MIC against eumycetes, broth dilution; conditions: Sabouraud medium, 30° C., 7 days
Procedure: as §6

[29] = test system: Aureobasidium pullulans IFO 6353; experiment: Antimold MIC against eumycetes, broth dilution; conditions: Sabouraud medium, 30° C., 7 days
Procedure: as §6

[30] = test system: Chaetomium globosum IFO 6347; experiment: Antimold MIC against eumycetes, broth dilution; conditions: Sabouraud medium, 30° C., 7 days
Procedure: as §6

[31] = test system: Cladosporium cladosporioides IFO 6348; experiment: Antimold MIC against eumycetes, broth dilution; conditions: Sabouraud medium, 30° C., 7 days
Procedure: as §6

[32] = test system: Gliocladium virides IFO 6355; experiment: Antimold MIC against eumycetes, broth dilution; conditions: Sabouraud medium, 30° C., 7 days
Procedure: as §6

[33] = test system: Penicillium funiculosum IFO 6345; experiment: Antimold MIC against eumycetes, broth dilution; conditions: Sabouraud medium, 30° C., 7 days
Procedure: as §6

Rhizopus nigricans SN 32 = experiment: Antimold MIC against eumycetes, broth dilution; conditions: Sabouraud medium, 30° C., 7 days
Procedure: as §6

[34] = test system: Trichoderma virides IFO 30498; experiment: Antimold MIC against eumycetes, broth dilution; conditions: Sabouraud medium, 30° C., 7 days
Procedure: as §6

| Molecule | MIC (Bacillus cereus IFO 3001 [1]) | MIC [2] | MIC [3] | MIC [4] | MIC [5] | MIC [6] | MIC [7] | MIC [8] | MIC [9] | MIC (Proteus rettgeri NIH 96 [10]) | MIC [11] | MIC [12] | MIC [13] | MIC [14] | MIC [15] | MIC [16] | MBC (Bacillus cereus IFO 3001 [17]) | MBC [18] | MBC [19] | MBC [20] | further results |
| --- | --- | --- | --- | --- | --- | --- | --- | --- | --- | --- | --- | --- | --- | --- | --- | --- | --- | --- | --- | --- | --- |
| CCCCCCCC[n+]1cccc(COCCCCOCc2ccc[n+](CCCCCCCC)c2)c1.[Br-].[Br-] [Compound 7-A] | 0.45 µM | 0.45 µM | 0.5 µM | 0.9 µM | 0.9 µM | 1.8 µM | 1.8 µM | 0.2 µM | 6.25 µM | 3.6 µM | 3.6 µM | 6.25 µM | 6.25 µM | 6.25 µM | 0.45 µM | 0.4 µM | 0.9 µM | 0.9 µM | 0.9 µM | 1.8 µM | MBC [21]: 3.6 µM; MBC (Proteus rettgeri NIH 96 [22]): 3.6 µM; MBC [23]: 3.6 µM; MBC [24]: 0.9 µM; MBC [25]: 1.8 µM; MIC [26]: 3.6 µM; MIC [27]: 3.6 µM; MIC [28]: 3.6 µM; MIC [29]: 3.6 µM; MIC [30]: 3.6 µM; MIC [31]: 3.6 µM; MIC [32]: 3.6 µM; MIC [33]: 3.6 µM; MIC (Rhizopus nigricans SN 32): 6.25 µM; MIC [34]: 6.25 µM |
| CCCCCCCC[n+]1ccc(COCCCCOCc2cc[n+](CCCCCCCC)cc2)cc1.[Br-].[Br-] [Compound 7-B] | 0.45 µM | 0.45 µM | 0.45 µM | 0.9 µM | 0.9 µM | 3.6 µM | 1.8 µM | 0.2 µM | 6.25 µM | 3.6 µM | 3.6 µM | 3.6 µM | 3.6 µM | 6.25 µM | 0.45 µM | 0.45 µM | 0.9 µM | 0.9 µM | 0.9 µM | 1.8 µM | MBC [21]: 3.6 µM; MBC (Proteus rettgeri NIH 96 [22]): 3.6 µM; MBC [23]: 3.6 µM; MBC [24]: 0.9 µM; MBC [25]: 1.8 µM; MIC [26]: 3.6 µM; MIC [27]: 3.6 µM; MIC [28]: 3.6 µM; MIC [29]: 3.6 µM; MIC [30]: 3.6 µM; MIC [31]: 3.6 µM; MIC [32]: 3.6 µM; MIC [33]: 3.6 µM; MIC (Rhizopus nigricans SN 32): 6.25 µM; MIC [34]: 6.25 µM |
| CCCCCCCCCC[n+]1cccc(COCCCCOCc2ccc[n+](CCCCCCCCCC)c2)c1.[Br-].[Br-] [Compound 7-C] | 0.2 µM | 0.1 µM | 0.2 µM | 0.45 µM | 0.45 µM | 1.8 µM | 0.45 µM | 0.1 µM | 1.8 µM | 0.9 µM | 0.45 µM | 1.8 µM | 1.8 µM | 0.9 µM | 0.2 µM | 0.45 µM | 0.2 µM | 0.2 µM | 0.45 µM | 0.45 µM | MBC [21]: 0.9 µM; MBC (Proteus rettgeri NIH 96 [22]): 0.9 µM; MBC [23]: 0.9 µM; MBC [24]: 0.2 µM; MBC [25]: 0.45 µM; MIC [26]: 1.8 µM; MIC [27]: 1.8 µM; MIC [28]: 0.9 µM; MIC [29]: 1.8 µM; MIC [30]: 0.9 µM; MIC [31]: 0.9 µM; MIC [32]: 1.8 µM; MIC [33]: 1.8 µM; MIC (Rhizopus nigricans SN 32): 1.8 µM; MIC [34]: 0.9 µM |
| c1ccc2[nH]c(-c3cscn3)nc2c1 [TBZ, 2-(4′-thiozolyl)benzimidazole, reference compound] | – | – | – | – | – | – | – | – | – | – | – | – | – | – | – | – | – | – | – | – | MIC [26]: 25.6 µM (≈ 5.15 µg/mL); MIC [27]: 102.4 µM (≈ 20.6 µg/mL); MIC [28]: 25.6 µM (≈ 5.15 µg/mL); MIC [29]: 0.8 µM (≈ 0.161 µg/mL); MIC [30]: 3.2 µM (≈ 0.644 µg/mL); MIC [31]: 3.2 µM (≈ 0.644 µg/mL); MIC [32]: 3.2 µM (≈ 0.644 µg/mL); MIC [33]: 1.6 µM (≈ 0.322 µg/mL); MIC (Rhizopus nigricans SN 32): 102.4< μM; MIC [34]: 51.2 µM (≈ 10.3 µg/mL) |
| benzalkonium chloride [reference compound] | 6.4 µM | 6.4 µM | 6.4 µM | 12.8 µM | 25.6 µM | 102.4 µM | 12.8 µM | 6.4 µM | 204.8 µM | 51.2 µM | 16.4 µM | 51.2 µM | 51.2 µM | 102.4 µM | 6.4 µM | 12.8 µM | – | – | – | – | – |
| benzalkonium iodide [reference compound] | – | – | – | – | – | – | – | – | – | – | – | – | – | – | – | – | 25.6 µM | 0.8 µM | 1.6 µM | 204.8 µM | MBC [21]: 102.4 µM; MBC (Proteus rettgeri NIH 96 [22]): 51.2 µM; MBC [23]: 204.8 µM; MBC [24]: 6.4 µM; MBC [25]: 51.2 µM |

— patent US7612097B2, “Method for producing bactericidal pyridine compound and bactericidal pyridine compound” (Tama Kagaku Kogyo Co., Ltd., priority 2003, dated 2009)
